# Experimental data taken from patent publication US20250325535A1, “IDENTIFICATION OF NOVEL SMALL-MOLECULE INHIBITORS OF SARS-CoV-2 BY CHEMICAL GENETICS” (The University of Hong Kong, priority 2024, published 2025).
# Key:
# [1] = system: SARS-CoV-2 variants and other human coronaviruses; assay: microbe, parasite or virus in culture; type: cell-based; details: Severe acute respiratory syndrome coronavirus 2, read-out: IC50 (antiviral)
# [2] = system: 3CLpro S301P recombinant SARS-CoV-2; type: cell-based; details: for IC50: read-out: IC50 (plaque formation assay)
# [3] = system: SARS-COV-2 Alpha variant (B.1.1.7); type: in vivo, K18-hACE2 transgenic mice; details: n=5, IP once daily; 172 50 mg/kg, Nirmatrelvir 200 mg/kg; vehicle mice died day 5-6
Structure (SMILES),IC50 [1],IC50 [2],time of death (survival) [3],inhibition of virus replication [2]
CC(C)(C)[C@H](NC(=O)C(F)(F)F)C(=O)N1C[C@H]2[C@@H]([C@H]1C(=O)N[C@H](C#N)C[C@@H]1CCNC1=O)C2(C)C [Nirmatrelvir],4.5 to 32 nM,20.1 nM,"one mouse died on day 6, and all remaining mice died on day 8",–
CCOc1cc2ncc(C#N)c(Nc3ccc(F)c(Cl)c3)c2cc1NC(=O)/C=C/CN(C)C [Pelitinib],–,7300 nM,–,not the mutant virus
